Test results as given in PubChem BioAssay (NCI).
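Compound exposure: 48 hours, 5 concentrations, 96-well plates. At the GI50, growth is halved. At the TGI there is no net growth.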

Experiments:
Assay in all cases: inhibition of tumour cell growth, NCI panel, 48 h
OVCAR-3 ovarian = system: OVCAR-3 ovarian
PC-3 prostate = system: PC-3 prostate
DU-145 prostate = system: DU-145 prostate
UACC-62 melanoma = system: UACC-62 melanoma
HCT-116 colon = system: HCT-116 colon
U251 CNS = system: U251 CNS
HOP-92 NSCLC = system: HOP-92 NSCLC
SF-295 CNS = system: SF-295 CNS
SK-MEL-2 melanoma = system: SK-MEL-2 melanoma
SR leukemia = system: SR leukemia
MOLT-4 leukemia = system: MOLT-4 leukemia
HS 578T breast = system: HS 578T breast
786-0 renal = system: 786-0 renal
A549 NSCLC = system: A549 NSCLC
ACHN renal = system: ACHN renal
K-562 leukemia = system: K-562 leukemia
HCT-15 colon = system: HCT-15 colon
SK-MEL-5 melanoma = system: SK-MEL-5 melanoma
T-47D breast = system: T-47D breast
HL-60(TB) leukemia = system: HL-60(TB) leukemia
NCI-H522 lung = system: NCI-H522 lung
IGROV1 ovarian = system: IGROV1 ovarian
SNB-75 CNS = system: SNB-75 CNS
OVCAR-4 ovarian = system: OVCAR-4 ovarian
UACC-257 melanoma = system: UACC-257 melanoma
SF-268 CNS = system: SF-268 CNS
CAKI-1 renal = system: CAKI-1 renal
HCC-2998 colon = system: HCC-2998 colon
TK-10 renal = system: TK-10 renal
NCI-H23 lung = system: NCI-H23 lung
EKVX NSCLC = system: EKVX NSCLC
MDA-MB-231 breast = system: MDA-MB-231 breast
NCI-H226 lung = system: NCI-H226 lung
A498 renal = system: A498 renal
OVCAR-8 ovarian = system: OVCAR-8 ovarian
CCRF-CEM leukemia = system: CCRF-CEM leukemia
HT29 colon = system: HT29 colon
NCI-H460 lung = system: NCI-H460 lung
KM12 colon = system: KM12 colon
MCF7 breast = system: MCF7 breast
SK-MEL-28 melanoma = system: SK-MEL-28 melanoma
SNB-19 CNS = system: SNB-19 CNS
RXF 393 renal = system: RXF 393 renal
SK-OV-3 ovarian = system: SK-OV-3 ovarian
BT-549 breast = system: BT-549 breast
NCI/ADR-RES ovarian = system: NCI/ADR-RES ovarian
SF-539 CNS = system: SF-539 CNS
MALME-3M melanoma = system: MALME-3M melanoma
M14 melanoma = system: M14 melanoma
SN12C renal = system: SN12C renal
MDA-MB-468 breast = system: MDA-MB-468 breast
OVCAR-5 ovarian = system: OVCAR-5 ovarian
HOP-62 NSCLC = system: HOP-62 NSCLC
SW-620 colon = system: SW-620 colon
LOX IMVI melanoma = system: LOX IMVI melanoma
UO-31 renal = system: UO-31 renal
COLO 205 colon = system: COLO 205 colon
MDA-MB-435 = system: MDA-MB-435
RPMI-8226 leukemia = system: RPMI-8226 leukemia

Molecule `O=Cc1cncc(-c2ccc3ncnc(N4CCc5cc(F)c(Cl)cc54)c3c2)c1` has a GI50 (OVCAR-3 ovarian) of 2.26 µM, a TGI (OVCAR-3 ovarian) of 34.9 µM and a GI50 (PC-3 prostate) of 2.84 µM. For the same molecule, the TGI (PC-3 prostate) was 18.2 µM, the GI50 (DU-145 prostate) was 3.93 µM and the TGI (DU-145 prostate) was > 100 µM. For the same molecule, the GI50 (UACC-62 melanoma) was 2.02 µM, the TGI (UACC-62 melanoma) was 12.4 µM and the GI50 (HCT-116 colon) was 5.41 µM. It also gave a TGI (HCT-116 colon) of 20.4 µM, a GI50 (U251 CNS) of 11.1 µM and a TGI (U251 CNS) of 34 µM. The GI50 (HOP-92 NSCLC) was 1.86 µM, the TGI (HOP-92 NSCLC) was 11.9 µM and the GI50 (SF-295 CNS) was 3.98 µM. The TGI (SF-295 CNS) was 21.5 µM, the GI50 (SK-MEL-2 melanoma) was 12.1 µM and the TGI (SK-MEL-2 melanoma) was 28.5 µM. For the same molecule, the GI50 (SR leukemia) was 3.77 µM, the TGI (SR leukemia) was 23.7 µM and the GI50 (MOLT-4 leukemia) was 2.45 µM. It also gave a TGI (MOLT-4 leukemia) of 7.06 µM, a GI50 (HS 578T breast) of 1.74 µM and a TGI (HS 578T breast) of 8.98 µM. For the same molecule, the GI50 (786-0 renal) was 2.11 µM, the TGI (786-0 renal) was 16.1 µM and the GI50 (A549 NSCLC) was 2.64 µM. For the same molecule, the TGI (A549 NSCLC) was 17.1 µM, the GI50 (ACHN renal) was 1.02 µM and the TGI (ACHN renal) was 13.5 µM. For the same molecule, the GI50 (K-562 leukemia) was 7.74 µM, the TGI (K-562 leukemia) was > 100 µM and the GI50 (HCT-15 colon) was 3.41 µM. It also gave a TGI (HCT-15 colon) of 17.2 µM, a GI50 (SK-MEL-5 melanoma) of 4.38 µM and a TGI (SK-MEL-5 melanoma) of 17.6 µM. For the same molecule, the GI50 (T-47D breast) was 1.31 µM, the TGI (T-47D breast) was 11.1 µM and the GI50 (HL-60(TB) leukemia) was 2.22 µM. For the same molecule, the TGI (HL-60(TB) leukemia) was 22.1 µM, the GI50 (NCI-H522 lung) was 11 µM and the TGI (NCI-H522 lung) was 30.6 µM. For the same molecule, the GI50 (IGROV1 ovarian) was 1.05 µM, the TGI (IGROV1 ovarian) was 4.78 µM and the GI50 (SNB-75 CNS) was 1 µM. For the same molecule, the TGI (SNB-75 CNS) was 10 µM, the GI50 (OVCAR-4 ovarian) was 5.18 µM and the TGI (OVCAR-4 ovarian) was 41.1 µM. For the same molecule, the GI50 (UACC-257 melanoma) was 8.62 µM, the TGI (UACC-257 melanoma) was 25.9 µM and the GI50 (SF-268 CNS) was 5.14 µM. For the same molecule, the TGI (SF-268 CNS) was > 100 µM, the GI50 (CAKI-1 renal) was 1.31 µM and the TGI (CAKI-1 renal) was 16 µM. The GI50 (HCC-2998 colon) was 9.79 µM, the TGI (HCC-2998 colon) was 23.1 µM and the GI50 (TK-10 renal) was 1.32 µM. For the same molecule, the TGI (TK-10 renal) was 10.5 µM, the GI50 (NCI-H23 lung) was 10.2 µM and the TGI (NCI-H23 lung) was 27.1 µM. It also gave a GI50 (EKVX NSCLC) of 1.25 µM, a TGI (EKVX NSCLC) of 8.09 µM and a GI50 (MDA-MB-231 breast) of 4.85 µM. For the same molecule, the TGI (MDA-MB-231 breast) was 25.3 µM, the GI50 (NCI-H226 lung) was 5.1 µM and the TGI (NCI-H226 lung) was 23.9 µM. The GI50 (A498 renal) was 0.898 µM, the TGI (A498 renal) was 6.88 µM and the GI50 (OVCAR-8 ovarian) was 4.71 µM. For the same molecule, the TGI (OVCAR-8 ovarian) was 46.3 µM, the GI50 (CCRF-CEM leukemia) was 3.08 µM and the TGI (CCRF-CEM leukemia) was 14.9 µM. It also gave a GI50 (HT29 colon) of 11.1 µM, a TGI (HT29 colon) of 34.8 µM and a GI50 (NCI-H460 lung) of 4.49 µM. For the same molecule, the TGI (NCI-H460 lung) was 20.2 µM, the GI50 (KM12 colon) was 15.4 µM and the TGI (KM12 colon) was 49.3 µM. It also gave a GI50 (MCF7 breast) of 1.64 µM, a TGI (MCF7 breast) of 7.38 µM and a GI50 (SK-MEL-28 melanoma) of 7.95 µM. It also gave a TGI (SK-MEL-28 melanoma) of 25.2 µM, a GI50 (SNB-19 CNS) of 4.73 µM and a TGI (SNB-19 CNS) of 35 µM. For the same molecule, the GI50 (RXF 393 renal) was 1.23 µM, the TGI (RXF 393 renal) was 4.32 µM and the GI50 (SK-OV-3 ovarian) was 2.66 µM. The TGI (SK-OV-3 ovarian) was 9.59 µM, the GI50 (BT-549 breast) was 1.77 µM and the TGI (BT-549 breast) was 12.5 µM. It also gave a GI50 (NCI/ADR-RES ovarian) of 5.31 µM, a TGI (NCI/ADR-RES ovarian) of 36.6 µM and a GI50 (SF-539 CNS) of 3.75 µM. The TGI (SF-539 CNS) was 18.7 µM, the GI50 (MALME-3M melanoma) was 2.72 µM and the TGI (MALME-3M melanoma) was 18.6 µM. The GI50 (M14 melanoma) was 5.51 µM, the TGI (M14 melanoma) was 20.9 µM and the GI50 (SN12C renal) was 2.71 µM. It also gave a TGI (SN12C renal) of 21.2 µM, a GI50 (MDA-MB-468 breast) of 1.22 µM and a TGI (MDA-MB-468 breast) of 3.21 µM. The GI50 (OVCAR-5 ovarian) was 4.01 µM, the TGI (OVCAR-5 ovarian) was 22.1 µM and the GI50 (HOP-62 NSCLC) was 2.47 µM. For the same molecule, the TGI (HOP-62 NSCLC) was 26 µM, the GI50 (SW-620 colon) was 10.3 µM and the TGI (SW-620 colon) was 26.1 µM. For the same molecule, the GI50 (LOX IMVI melanoma) was 3.68 µM, the TGI (LOX IMVI melanoma) was 17.4 µM and the GI50 (UO-31 renal) was 0.523 µM. It also gave a TGI (UO-31 renal) of 13.8 µM, a GI50 (COLO 205 colon) of 15.6 µM and a TGI (COLO 205 colon) of 32.6 µM. For the same molecule, the GI50 (MDA-MB-435) was 6.39 µM, the TGI (MDA-MB-435) was 25.1 µM and the GI50 (RPMI-8226 leukemia) was 3.14 µM. It also gave a TGI (RPMI-8226 leukemia) of 22.6 µM.
